Experimental findings from US10526309B2, “Pan-TAM inhibitors and Mer/Axl dual inhibitors” (The University of North Carolina at Chapel Hill, priority 2015, dated 2020) are described below.

Where only a bound is given, the exact number is not on record here.

One assay concerns the target T1, Axl (Homo sapiens, UniProt P30530).
T1 sequence (P30530 26-894): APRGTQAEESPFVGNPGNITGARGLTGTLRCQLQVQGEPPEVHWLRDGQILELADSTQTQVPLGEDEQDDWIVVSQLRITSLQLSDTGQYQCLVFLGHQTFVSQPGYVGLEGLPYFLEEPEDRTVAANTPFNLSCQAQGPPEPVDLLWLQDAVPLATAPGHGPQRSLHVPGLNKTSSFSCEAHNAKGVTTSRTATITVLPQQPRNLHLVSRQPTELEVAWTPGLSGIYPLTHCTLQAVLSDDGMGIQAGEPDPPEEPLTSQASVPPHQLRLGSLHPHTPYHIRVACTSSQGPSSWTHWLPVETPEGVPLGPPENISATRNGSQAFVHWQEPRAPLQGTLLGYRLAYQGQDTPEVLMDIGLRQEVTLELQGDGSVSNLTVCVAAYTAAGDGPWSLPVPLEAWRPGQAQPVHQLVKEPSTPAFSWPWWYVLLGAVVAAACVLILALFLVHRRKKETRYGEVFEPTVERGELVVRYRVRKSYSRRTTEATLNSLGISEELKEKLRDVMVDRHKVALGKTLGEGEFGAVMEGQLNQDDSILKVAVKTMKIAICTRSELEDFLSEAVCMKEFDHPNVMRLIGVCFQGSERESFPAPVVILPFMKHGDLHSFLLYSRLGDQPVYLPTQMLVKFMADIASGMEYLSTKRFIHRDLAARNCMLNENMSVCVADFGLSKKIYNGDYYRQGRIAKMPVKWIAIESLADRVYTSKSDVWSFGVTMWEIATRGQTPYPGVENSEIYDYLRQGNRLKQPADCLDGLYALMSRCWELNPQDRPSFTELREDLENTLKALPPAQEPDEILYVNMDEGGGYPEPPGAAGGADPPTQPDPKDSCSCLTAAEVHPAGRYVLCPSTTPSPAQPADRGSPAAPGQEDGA
As to the kind of experiment: Axl kinase inhibition IC50. In kind it is biochemical. The following applies: Table 1.
A word on the IC50: it is the midpoint of a concentration-inhibition curve. With `CC(C)N1CCC(=Cc2ccc(-c3cnc(Nc4ccc(F)cc4)nc3N[C@H]3CC[C@H](O)CC3)nc2)CC1` [UNC4397A], the IC50 is < 10 nM.

The assay is the same for the next values; noted with them: Table 2.
`O[C@H]1CC[C@H](Nc2nc(Nc3ccc(C4=CCNCC4)cc3)ncc2-c2ccccn2)CC1` [UNC4402A] yielded an IC50 of 1000 to 30000 nM.

In turn, `CC[C@H](N)C(=O)N1CC=C(c2ccc(Nc3ncc(-c4ccccn4)c(N[C@H]4CC[C@H](O)CC4)n3)cc2)CC1` [UNC4403A] yielded an IC50 of 1000 to 30000 nM.

In turn, `CN1CC=C(c2ccc(Nc3ncc(-c4ccccn4)c(N[C@H]4CC[C@H](O)CC4)n3)cc2)CC1` [UNC4431A] returned an IC50 of 1000 to 30000 nM.

`O[C@H]1CC[C@H](Nc2nc(Nc3ccc(C4=CCOCC4)cc3)ncc2-c2ccccn2)CC1` [UNC4434A] displayed an IC50 of 100 to 1000 nM.

`O[C@H]1CC[C@H](Nc2nc(Nc3ccc(-c4cccnc4)cc3)ncc2-c2ccccn2)CC1` [UNC4435A] had an IC50 of 1000 to 30000 nM.

As to `CN1CCC(N2CC=C(c3ccc(Nc4ncc(-c5ccccn5)c(N[C@H]5CC[C@H](O)CC5)n4)cc3)CC2)CC1` [UNC5052A], the half-inhibitory concentration (IC50) lay within 100 to 1000 nM.

With `O[C@H]1CC[C@H](Nc2nc(Nc3ccc(C4=CCCN(C5CCC5)C4)cc3)ncc2-c2ccccn2)CC1` [UNC5070A], the IC50 lay in the range of 1000 to 30000 nM.

For the compound `CN1CCC(N2CCC(c3ccc(Nc4ncc(-c5ccccn5)c(N[C@H]5CC[C@H](O)CC5)n4)cc3)CC2)CC1` [UNC5072A], the IC50 was 100 to 1000 nM.

As to `O[C@H]1CC[C@H](Nc2nc(Nc3ccc(C4=CCCNC4)cc3)ncc2-c2ccccn2)CC1` [UNC5113A], the IC50 lay in the range of 100 to 1000 nM.

As to `O[C@H]1CC[C@H](Nc2nc(Nc3ccc(C4CCNCC4)cc3)ncc2-c2ccccn2)CC1` [UNC5128A], the IC50 fell in the range of 1000 to 30000 nM.

The compound `O[C@H]1CC[C@H](Nc2nc(Nc3ccc(C4CCCNC4)cc3)ncc2-c2ccccn2)CC1` (stereo partly drawn) [UNC5129A] came in with an IC50 of 100 to 1000 nM.

A further assay addresses T2, Tyro3 (Homo sapiens, UniProt Q06418).
T2 sequence (Q06418 41-890): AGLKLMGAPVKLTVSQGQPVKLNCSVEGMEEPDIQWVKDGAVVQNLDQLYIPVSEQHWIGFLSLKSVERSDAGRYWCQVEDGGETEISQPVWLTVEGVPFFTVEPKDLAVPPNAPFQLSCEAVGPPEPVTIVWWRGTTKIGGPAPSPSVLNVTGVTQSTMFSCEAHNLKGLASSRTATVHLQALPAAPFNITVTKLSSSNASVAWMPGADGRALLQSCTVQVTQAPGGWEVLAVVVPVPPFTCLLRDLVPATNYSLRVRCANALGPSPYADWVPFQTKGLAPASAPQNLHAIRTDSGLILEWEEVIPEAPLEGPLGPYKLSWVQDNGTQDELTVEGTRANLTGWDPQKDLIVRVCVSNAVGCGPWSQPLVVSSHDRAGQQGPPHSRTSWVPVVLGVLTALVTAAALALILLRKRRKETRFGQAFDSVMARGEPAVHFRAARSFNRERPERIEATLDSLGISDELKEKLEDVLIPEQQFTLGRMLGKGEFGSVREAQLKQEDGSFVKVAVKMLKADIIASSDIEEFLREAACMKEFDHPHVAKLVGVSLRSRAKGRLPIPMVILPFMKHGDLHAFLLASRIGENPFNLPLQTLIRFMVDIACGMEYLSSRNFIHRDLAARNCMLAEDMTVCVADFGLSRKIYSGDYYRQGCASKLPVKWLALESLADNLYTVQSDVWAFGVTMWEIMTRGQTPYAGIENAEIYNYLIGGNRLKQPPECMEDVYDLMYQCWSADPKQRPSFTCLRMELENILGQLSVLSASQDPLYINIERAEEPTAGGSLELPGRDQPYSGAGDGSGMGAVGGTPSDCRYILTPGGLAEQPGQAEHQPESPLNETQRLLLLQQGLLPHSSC
As to the kind of experiment: Tyro3 kinase inhibition IC50. The format is biochemical. The following applies: Table 1; read-out: Tyro3 IC50.
For the compound `CC(C)N1CCC(=Cc2ccc(-c3cnc(Nc4ccc(F)cc4)nc3N[C@H]3CC[C@H](O)CC3)nc2)CC1` [UNC4397A], the IC50 is < 10 nM.

The same assay, now with this note: Table 2; read-out: Tyro3 IC50.
With `O[C@H]1CC[C@H](Nc2nc(Nc3ccc(C4=CCNCC4)cc3)ncc2-c2ccccn2)CC1` [UNC4402A], the IC50 fell in the range of 100 to 1000 nM.

As to `CC[C@H](N)C(=O)N1CC=C(c2ccc(Nc3ncc(-c4ccccn4)c(N[C@H]4CC[C@H](O)CC4)n3)cc2)CC1` [UNC4403A], the 50% inhibitory concentration (IC50) was 100 to 1000 nM.

For `CN1CC=C(c2ccc(Nc3ncc(-c4ccccn4)c(N[C@H]4CC[C@H](O)CC4)n3)cc2)CC1` [UNC4431A], the IC50 is 100 to 1000 nM.

As to `O[C@H]1CC[C@H](Nc2nc(Nc3ccc(C4=CCOCC4)cc3)ncc2-c2ccccn2)CC1` [UNC4434A], the IC50 lay within 100 to 1000 nM.

Consider `O[C@H]1CC[C@H](Nc2nc(Nc3ccc(-c4cccnc4)cc3)ncc2-c2ccccn2)CC1` [UNC4435A], for which the IC50 was 100 to 1000 nM.

Turning to `CN1CCC(N2CC=C(c3ccc(Nc4ncc(-c5ccccn5)c(N[C@H]5CC[C@H](O)CC5)n4)cc3)CC2)CC1` [UNC5052A], the IC50 was 100 to 1000 nM.

Take `O[C@H]1CC[C@H](Nc2nc(Nc3ccc(C4=CCCN(C5CCC5)C4)cc3)ncc2-c2ccccn2)CC1` [UNC5070A]: the IC50 fell in the range of 100 to 1000 nM.

Consider `CN1CCC(N2CCC(c3ccc(Nc4ncc(-c5ccccn5)c(N[C@H]5CC[C@H](O)CC5)n4)cc3)CC2)CC1` [UNC5072A], for which the IC50 fell in the range of 100 to 1000 nM.

On to `O[C@H]1CC[C@H](Nc2nc(Nc3ccc(C4=CCCNC4)cc3)ncc2-c2ccccn2)CC1` [UNC5113A], for which the IC50 was in the range of 100 to 1000 nM.

As for `O[C@H]1CC[C@H](Nc2nc(Nc3ccc(C4CCNCC4)cc3)ncc2-c2ccccn2)CC1` [UNC5128A], the IC50 was in the range of 100 to 1000 nM.

Consider `O[C@H]1CC[C@H](Nc2nc(Nc3ccc(C4CCCNC4)cc3)ncc2-c2ccccn2)CC1` (stereo partly drawn) [UNC5129A], for which the IC50 lay in the range of 100 to 1000 nM.

A further assay concerns the target T3, Mer (Homo sapiens, UniProt Q12866).
T3 sequence (Q12866 21-999): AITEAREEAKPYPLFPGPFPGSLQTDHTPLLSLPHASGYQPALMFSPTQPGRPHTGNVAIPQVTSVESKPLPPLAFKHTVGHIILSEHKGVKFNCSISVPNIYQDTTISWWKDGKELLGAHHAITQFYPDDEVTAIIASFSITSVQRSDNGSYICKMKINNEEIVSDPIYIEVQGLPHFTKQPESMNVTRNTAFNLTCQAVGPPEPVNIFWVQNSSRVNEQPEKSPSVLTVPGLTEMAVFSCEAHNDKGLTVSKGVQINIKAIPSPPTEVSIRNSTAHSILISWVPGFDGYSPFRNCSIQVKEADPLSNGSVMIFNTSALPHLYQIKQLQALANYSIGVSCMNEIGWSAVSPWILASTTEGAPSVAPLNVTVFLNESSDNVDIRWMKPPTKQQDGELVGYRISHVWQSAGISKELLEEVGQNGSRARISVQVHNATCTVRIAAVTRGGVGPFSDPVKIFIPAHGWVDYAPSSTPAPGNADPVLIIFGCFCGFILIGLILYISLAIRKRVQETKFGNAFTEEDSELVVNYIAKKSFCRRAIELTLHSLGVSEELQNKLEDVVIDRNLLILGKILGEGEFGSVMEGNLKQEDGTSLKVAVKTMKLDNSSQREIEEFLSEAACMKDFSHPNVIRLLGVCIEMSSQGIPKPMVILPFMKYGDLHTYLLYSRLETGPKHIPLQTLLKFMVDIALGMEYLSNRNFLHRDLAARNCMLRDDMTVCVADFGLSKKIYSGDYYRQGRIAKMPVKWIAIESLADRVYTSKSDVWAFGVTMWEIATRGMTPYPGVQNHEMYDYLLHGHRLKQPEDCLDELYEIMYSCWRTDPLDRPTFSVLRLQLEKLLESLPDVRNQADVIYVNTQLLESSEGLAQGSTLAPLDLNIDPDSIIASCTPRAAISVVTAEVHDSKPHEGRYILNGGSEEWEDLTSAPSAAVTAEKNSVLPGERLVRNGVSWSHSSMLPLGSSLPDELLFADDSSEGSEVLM
As to the kind of experiment: Mer kinase inhibition IC50. The following applies: Table 1; read-out: Mer IC50. In kind it is biochemical.
Regarding `CC(C)N1CCC(=Cc2ccc(-c3cnc(Nc4ccc(F)cc4)nc3N[C@H]3CC[C@H](O)CC3)nc2)CC1` [UNC4397A], the half-maximal inhibitory concentration (IC50) was < 10 nM.

Staying with this assay, now noted: Table 2; read-out: Mer IC50.
Take `O[C@H]1CC[C@H](Nc2nc(Nc3ccc(C4=CCNCC4)cc3)ncc2-c2ccccn2)CC1` [UNC4402A]: the IC50 lay in the range of 100 to 1000 nM.

For `CC[C@H](N)C(=O)N1CC=C(c2ccc(Nc3ncc(-c4ccccn4)c(N[C@H]4CC[C@H](O)CC4)n3)cc2)CC1` [UNC4403A], the IC50 lay within 100 to 1000 nM.

`CN1CC=C(c2ccc(Nc3ncc(-c4ccccn4)c(N[C@H]4CC[C@H](O)CC4)n3)cc2)CC1` [UNC4431A]: the IC50 lay within 100 to 1000 nM.

On to `O[C@H]1CC[C@H](Nc2nc(Nc3ccc(C4=CCOCC4)cc3)ncc2-c2ccccn2)CC1` [UNC4434A], for which the IC50 is 10 to 100 nM.

On to `O[C@H]1CC[C@H](Nc2nc(Nc3ccc(-c4cccnc4)cc3)ncc2-c2ccccn2)CC1` [UNC4435A], for which the IC50 was in the range of 100 to 1000 nM.

With `CN1CCC(N2CC=C(c3ccc(Nc4ncc(-c5ccccn5)c(N[C@H]5CC[C@H](O)CC5)n4)cc3)CC2)CC1` [UNC5052A], the IC50 is 10 to 100 nM.

Turning to `O[C@H]1CC[C@H](Nc2nc(Nc3ccc(C4=CCCN(C5CCC5)C4)cc3)ncc2-c2ccccn2)CC1` [UNC5070A], the IC50 lay within 100 to 1000 nM.

In the case of `CN1CCC(N2CCC(c3ccc(Nc4ncc(-c5ccccn5)c(N[C@H]5CC[C@H](O)CC5)n4)cc3)CC2)CC1` [UNC5072A], the IC50 was in the range of 10 to 100 nM.

With `O[C@H]1CC[C@H](Nc2nc(Nc3ccc(C4=CCCNC4)cc3)ncc2-c2ccccn2)CC1` [UNC5113A], the IC50 was in the range of 10 to 100 nM.

`O[C@H]1CC[C@H](Nc2nc(Nc3ccc(C4CCNCC4)cc3)ncc2-c2ccccn2)CC1` [UNC5128A]: the IC50 fell in the range of 100 to 1000 nM.

Turning to `O[C@H]1CC[C@H](Nc2nc(Nc3ccc(C4CCCNC4)cc3)ncc2-c2ccccn2)CC1` (stereo partly drawn) [UNC5129A], the IC50 lay in the range of 100 to 1000 nM.
